Experiments:
skin wounds = test: Homing of systemically administered FAM-peptides to mouse skin excision wounds and normal organs (anti-FAM staining, QuPath); assay type: in vivo, mouse (BALB/cJRj); conditions: for localisation in skin wound / accumulation in normal organs: tail vein, 150 min; for localisation in skin wound: anti-FAM and anti-CD31 staining; for accumulation in normal organs: normal skin, heart, liver, lung, spleen, kidney, anti-FAM staining
Experimental: We next studied homing of systemically administered CDD, CPK, and CYH peptides in mouse skin excision wounds at the peak of neovascularization, 7 d after wounding. The peptides were injected into the tail vein and allowed to circulate for 2.5 h. The systemically administered peptides were detected in the granulation tissue of the wounds outside of the blood vessels (Figs 2 and S4). […] In contrast, the peptides were undetectable in normal skin (Fig S5A), heart, liver, lung, and spleen (Fig S5B), except for strong signal related to peptide secretion from the kidney glomeruli (Fig S5B).
Figure 2. Microdialysis-captured peptides home to skin wounds and localize in granulation tissue. […] Six-mm-diameter full-thickness wounds were cut in the back skin of 8-wk-old male mice. After 7 d, the peptides or PBS was injected systemically (tail vein). The peptides were allowed to circulate for 150 min before the vasculature was thoroughly perfused. The wound tissue was fixed, and microscopic sections were stained with anti-FAM and hematoxylin. (A, B) Magnifications of areas marked in panel (A) are represented in panel (B) with adjacent sections stained with anti-CD31 to visualize the blood vessels. The scale bar is 500 μm for panel (A) and 125 μm for panel (B). Images are representative of two separate experiments, four mice in each peptide group.
(§1) Figure 3. Microdialysis-captured peptides home to skin wounds and penetrate blood–retina barrier in retinopathy. Systemically administered homing peptides CDD, CPK, and CYH accumulate in skin wounds and penetrate blood–retina barrier in retinopathy. Full-thickness wounds, 6 mm in diameter, in the back skin of 8-wk-old male mice were used. After 7 d, each peptide or PBS was injected into the tail vein. For retinopathy experiments, oxygen-induced retinopathy (OIR) was induced by placing mouse pups at day P7 in a hyperoxia chamber for 5 d. On P17, when the angiogenesis peaks in this OIR model, the peptides were injected into the tail vein. The peptides circulated for 150 min (wounds) and 120 min (OIR) before the vasculature was thoroughly perfused. The skin wounds and eyeballs were fixed, and histological samples stained with anti-FAM and hematoxylin. Peptide homing was quantified with the automated image analysis system. (A) Microdialysis-identified peptides home to skin wounds. […] (D) All three microdialysis-identified peptides also accumulate substantially in the vitreous in the OIR model. *P < 0.05, **P < 0.01, ***< 0.001. Each datapoint represents an individual wound, retina, or vitreous. N = 3 for skin wound, and N = 6 and N = 8 for normal and OIR retinas.
Male BALB/cJRj and diabetic male BKS(D)-Lepr^db/JOrlRj mice were used for the peptide homing experiment. The BALB/cJRj mice were 8 wk old and weighed 24–28 g. The BKS(D)-Lepr^db/JOrlRj mice were 14 wk old and weighed 45–58 g, and their blood sugar levels were over 33 mmol/liter. Four full-thickness circular wounds were created on a shaved and disinfected skin with a 6-mm-diameter biopsy punch and scissors under isoflurane anesthesia (Attane vet 1,000 mg/g; Piramal Critical Care B.V.) and buprenorphine analgesia (0.15 mg/kg; Vetergesic vet 0.3 mg/ml; Ceva Santé Animal). Seven days after the wounding, the homing experiment was performed. The animal use was accepted by the National Animal Ethics Committee of Finland on 12 September 2017 (ESAVI/6422/04.10.07/2017) and on 4 January 2022 (ESAVI/39175/2021).
BALB/cJRj and diabetic male BKS(D)-Lepr^db/JOrlRj mice with 7-d-old skin wounds were used for the peptide homing experiment. FAM-labeled peptides were dissolved in the PBS just before the experiment. 5 mg/kg (BALB/cJRj) or 1,5 mg/kg (BKS(D)-Lepr^db/JOrlRj) of each peptide (CAR, CDD, CPK, CYH, and a control peptide) in PBS or plain PBS (control) was injected on the tail vein under sevoflurane anesthesia. […]

retina (OIR model) = test: Homing of FAM-peptides to retina and vitreous in oxygen-induced retinopathy (OIR) and to normal retina; assay type: in vivo, mouse (C57BL/6Rj); conditions: for peptide accumulation in the vitreous of the OIR retina relative to the control peptide / area of positive staining in OIR retina relative to a control peptide: OIR mice P17, 5 mg/kg, 120 min circulation, anti-FAM; for area of positive staining in OIR retina relative to a control peptide: N = 8; for homing signal in OIR retinas around retinal and preretinal blood vessels: OIR mice P17, 120 min, anti-FAM staining
Experimental: as §1
We wanted to explore whether the new wound-penetrating peptides externalize and penetrate tissues that have an additional barrier around the blood vessels. The retinal blood vessels have an additional element, blood–retina barrier (BRB) that hinders the access of systemically administered drugs to retina ([Lahdenranta et al, 2007]; [Sweeney et al, 2019]; [Vähätupa, et al, 2020b]). Thus, we explored the homing of the new peptides to the normal retina and to the retinal angiogenesis in the oxygen-induced retinopathy (OIR) model ([Vähätupa, et al, 2020b]). […] Next, we quantified the area of positive staining in the retina. There was ninefold more of CYH (P < 0.01) and 120-fold and 88-fold more of CDD and CPK than of a control peptide in OIR retinas (P < 0.0001 for the CDD and CPK peptides) (Fig 3C).
Figure 4. Microdialysis-captured peptides home and penetrate to retina in retinopathy. The CDD, CPK, and CYH peptides accumulate in the retina and vitreous in oxygen-induced retinopathy (OIR). The OIR model was carried out as described previously ([Vähätupa et al, 2020b]). At P17, the peptides were injected into the tail vein and circulated for 120 min before the vasculature was thoroughly perfused. The eyeballs were fixed and histological sections stained with anti-FAM antibody and hematoxylin. (A) None of the tested peptides homed to the normal retina after the systemic administration at P17. (B) Three microdialysis-identified homing peptides homed and penetrated into the retina in OIR at the peak of angiogenesis at P17. The peptides also accumulate in the vitreous in the OIR model. (A, B, C) High-magnification images of peptide accumulation in OIR retina. The scale bar is 100 μm for (A, B) and 20 μm for (C). Images are representative of N = 6 and N = 8 for normal and OIR retinas.
WT C57BL/6Rj mice were used for the OIR experiments ([Vähätupa, et al, 2020a]). The OIR model was performed as described in detail previously ([Vähätupa, et al, 2020a]; [De Rossi et al, 2021]). Briefly, to induce retinopathy in the retina, the pups and their nursing mothers were exposed to 75% oxygen in a custom-made chamber (ProOx P110 oxygen controller; BioSpherix Ltd.) at postnatal day 7 (P7) for 5 d until P12 when they were returned to normal room air. The homing experiments were performed at P17 (late hypoxic phase and the peak of neovascularization) ([Vähätupa et al, 2021]). Control animals were housed under normal room air conditions, and retinas were harvested on the corresponding day (P17). All retina experiments were conducted under the ARVO Statement for the Use of Animals in Ophthalmic and Vision Research guidelines. […]

| Sequence | accumulation in skin wounds relative to a control (skin wounds; mouse day 7 wound, 5 mg/kg tail vein, 150 min circulation, anti-FAM positive area, N = 3) [fold] | localisation in skin wound (skin wounds; mouse day 7 wound) | accumulation in normal organs (skin wounds) | peptide accumulation in the vitreous of the OIR retina relative to the control peptide (retina (OIR model)) [×] | area of positive staining in OIR retina relative to a control peptide (retina (OIR model)) | homing signal in OIR retinas around retinal and preretinal blood vessels (retina (OIR model)) |
| --- | --- | --- | --- | --- | --- | --- |
| CDDYQQISC [FAM-labeled synthetic peptide …] | 12 | accumulated in wound regions containing blood vessels and in surrounding extravascular granulation tissue | do not accumulate in normal, healthy organs except in the kidneys | 67.2 | 120 fold | strong homing signal |
| CPKKHHLDC [FAM-labeled synthetic peptide …] | – | accumulated in wound regions containing blood vessels and in surrounding extravascular granulation tissue | do not accumulate in normal, healthy organs except in the kidneys | 80.3 | 88 fold | strong homing signal |
| CYHDTYPNC [FAM-labeled synthetic peptide …] | – | accumulated in wound regions containing blood vessels and in surrounding extravascular granulation tissue | do not accumulate in normal, healthy organs except in the kidneys | 16.9 | ninefold | strong homing signal |
